Results on 3 compounds are retold here after article PMC3751577, “Three-stage biochemical selection: cloning of prototype class IIS/IIC/IIG restriction endonuclease-methyltransferase TsoI from the thermophile Thermus scotoductus” (BMC Molecular Biology, 2013).

Assay [1] addresses T1, TsoI (Thermus scotoductus, UniProt T1RQY5).
T1 construct: gene tsoIRM; native (wt) full-length enzyme purified to homogeneity from T. scotoductus; monomer
T1 sequence (T1RQY5 1-1116): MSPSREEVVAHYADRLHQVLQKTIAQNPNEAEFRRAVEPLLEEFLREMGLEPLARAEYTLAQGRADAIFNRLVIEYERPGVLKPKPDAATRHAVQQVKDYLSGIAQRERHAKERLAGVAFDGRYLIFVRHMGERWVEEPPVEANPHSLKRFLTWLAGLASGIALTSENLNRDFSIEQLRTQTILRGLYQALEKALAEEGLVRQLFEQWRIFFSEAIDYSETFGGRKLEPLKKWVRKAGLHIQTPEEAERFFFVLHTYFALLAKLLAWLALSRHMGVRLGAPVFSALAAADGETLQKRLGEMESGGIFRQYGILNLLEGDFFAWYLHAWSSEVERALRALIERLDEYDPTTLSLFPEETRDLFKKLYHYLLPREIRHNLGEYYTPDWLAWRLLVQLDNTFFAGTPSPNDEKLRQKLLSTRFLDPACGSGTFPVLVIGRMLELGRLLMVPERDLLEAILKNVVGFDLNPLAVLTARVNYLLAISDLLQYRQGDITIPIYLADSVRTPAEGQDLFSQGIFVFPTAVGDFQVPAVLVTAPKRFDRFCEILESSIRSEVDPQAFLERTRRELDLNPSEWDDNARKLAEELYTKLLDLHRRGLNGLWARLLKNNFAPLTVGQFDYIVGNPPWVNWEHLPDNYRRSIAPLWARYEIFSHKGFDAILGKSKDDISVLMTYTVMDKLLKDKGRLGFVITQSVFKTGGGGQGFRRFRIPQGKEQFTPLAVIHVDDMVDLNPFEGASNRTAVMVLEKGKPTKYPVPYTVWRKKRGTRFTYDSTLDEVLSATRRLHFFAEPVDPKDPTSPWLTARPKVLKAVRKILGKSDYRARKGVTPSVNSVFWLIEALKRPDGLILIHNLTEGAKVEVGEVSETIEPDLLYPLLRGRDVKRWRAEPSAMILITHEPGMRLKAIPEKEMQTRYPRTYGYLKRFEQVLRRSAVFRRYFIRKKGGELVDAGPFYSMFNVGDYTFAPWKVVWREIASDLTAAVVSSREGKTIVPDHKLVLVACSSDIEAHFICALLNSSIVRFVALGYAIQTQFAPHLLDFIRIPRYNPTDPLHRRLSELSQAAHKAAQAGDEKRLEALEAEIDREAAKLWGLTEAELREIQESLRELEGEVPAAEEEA
In words: DNA cleavage assays on lambda DNA and single-site PCR substrate, agarose gel. Format: biochemical. Particulars: activator, putative allosteric; weak stimulation of REase; 50 uM effector; 10 mM MgCl2, pH 7.5, 55°C, 30 min or 16 h.

Assay [2] has as its target T1, TsoI. As to the kind of experiment: DNA cleavage assay on lambda DNA, agarose gel. The format is biochemical. The note with it: activator, putative allosteric; weak stimulation of REase; 50 uM effector; 10 mM MgCl2, pH 7.5, 55°C, 30 min.

Turning to `C[S+](CC[C@H](N)C(=O)O)C[C@H]1O[C@@H](n2cnc3c(N)ncnc32)[C@H](O)[C@@H]1O` (stereo partly drawn) [SAM], the “DNA cleavage assays on lambda DNA and single-site PCR substrate, agarose gel” value at TsoI [1] was “activation of REase function by SAM, SIN and SAH is weak, but detectable”.

On to `Nc1ncnc2c1ncn2[C@@H]1O[C@H](CSCC[C@H](N)C(=O)O)[C@@H](O)[C@H]1O` [SAH], for which, at TsoI [2], the “DNA cleavage assay on lambda DNA, agarose gel” value was “activation of REase function by SAM, SIN and SAH is weak, but detectable”.

On to `Nc1ncnc2c1ncn2[C@@H]1O[C@H](C[C@@H](N)CC[C@H](N)C(=O)O)[C@@H](O)[C@H]1O` [SIN], for which the “DNA cleavage assay on lambda DNA, agarose gel” value on TsoI [2] is “activation of REase function by SAM, SIN and SAH is weak, but detectable”.
